The text below walks through data of patent publication US20170273922A1, “UREA AND BIS-UREA BASED COMPOUNDS AND ANALOGUES THEREOF USEFUL IN THE TREATMENT OF ANDROGEN RECEPTOR MEDIATED DISEASES OR DISORDERS” (THE ROYAL INSTITUTION FOR THE ADVACEMENT OF LEARNING/MCGILL …, priority 2014, published 2017).

One data set relates to LNCaP cells. Nature of the data set: Western blot analysis of apoptosis in LNCaP cells. In kind it is cell-based. As to conditions: whole medium, 24 h. How it is done: (§1) Experiments were in duplicate and repeated three times. […] LNCaP cells in whole medium were exposed to DMSO vehicle control or compounds for 24 h.
Data set [1] addresses T1, endogenous AR T877A mutant in LNCaP cells (Homo sapiens, UniProt P10275, T878A).
T1 construct: LNCaP cells, which express endogenous AR T877A mutant; endogenous in cells; host or cells: LNCaP
T1 sequence (P10275 1-920 T878A): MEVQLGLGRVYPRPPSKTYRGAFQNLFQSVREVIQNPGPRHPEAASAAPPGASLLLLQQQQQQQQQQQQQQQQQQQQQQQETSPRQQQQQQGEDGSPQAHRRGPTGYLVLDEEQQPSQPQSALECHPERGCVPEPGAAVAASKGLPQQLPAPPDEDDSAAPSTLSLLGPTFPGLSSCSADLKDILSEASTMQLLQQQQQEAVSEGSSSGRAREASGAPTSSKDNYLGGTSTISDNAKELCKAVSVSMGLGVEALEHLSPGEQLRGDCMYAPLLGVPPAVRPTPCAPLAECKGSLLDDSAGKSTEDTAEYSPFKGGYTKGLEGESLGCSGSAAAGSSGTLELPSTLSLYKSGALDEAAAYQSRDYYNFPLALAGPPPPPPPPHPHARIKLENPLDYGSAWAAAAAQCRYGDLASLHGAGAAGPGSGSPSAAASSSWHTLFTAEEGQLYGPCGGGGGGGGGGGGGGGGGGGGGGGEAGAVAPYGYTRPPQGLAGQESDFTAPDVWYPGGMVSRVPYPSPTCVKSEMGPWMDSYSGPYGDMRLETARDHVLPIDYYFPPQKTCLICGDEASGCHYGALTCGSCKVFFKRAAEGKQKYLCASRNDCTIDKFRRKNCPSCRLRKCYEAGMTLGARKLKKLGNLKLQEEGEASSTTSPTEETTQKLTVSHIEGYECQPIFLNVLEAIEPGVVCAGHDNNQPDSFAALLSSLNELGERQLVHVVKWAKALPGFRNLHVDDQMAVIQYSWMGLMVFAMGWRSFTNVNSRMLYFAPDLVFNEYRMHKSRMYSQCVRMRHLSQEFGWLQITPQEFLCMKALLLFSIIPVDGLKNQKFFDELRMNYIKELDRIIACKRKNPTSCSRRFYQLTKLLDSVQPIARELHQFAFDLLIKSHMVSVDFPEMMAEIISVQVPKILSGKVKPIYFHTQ
Nature of the data set: PSA-luc reporter assay in LNCaP cells (endogenous AR T877A mutant). In kind it is cell-based. How it is done:
as §1

A further data set deals with DU145 cells. As to the kind of experiment: MTT assay (cytotoxicity), DU145 cells. As to conditions: DU145 cells, 72 h, Table 4.2. In kind it is cell-based. In short, it runs like this:
(§2)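 Seed 6-7×10^3 cells/well; incubate overnight; replace with fresh RPMI 1640 + 10% FBS containing compound or DMSO; incubate 72 h; measure viable cells by MTT.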

The target in another data set is T2, AR-v7 in LNCaP cells (Homo sapiens, UniProt P10275).
T2 sequence (P10275 1-644 isoform P10275-3): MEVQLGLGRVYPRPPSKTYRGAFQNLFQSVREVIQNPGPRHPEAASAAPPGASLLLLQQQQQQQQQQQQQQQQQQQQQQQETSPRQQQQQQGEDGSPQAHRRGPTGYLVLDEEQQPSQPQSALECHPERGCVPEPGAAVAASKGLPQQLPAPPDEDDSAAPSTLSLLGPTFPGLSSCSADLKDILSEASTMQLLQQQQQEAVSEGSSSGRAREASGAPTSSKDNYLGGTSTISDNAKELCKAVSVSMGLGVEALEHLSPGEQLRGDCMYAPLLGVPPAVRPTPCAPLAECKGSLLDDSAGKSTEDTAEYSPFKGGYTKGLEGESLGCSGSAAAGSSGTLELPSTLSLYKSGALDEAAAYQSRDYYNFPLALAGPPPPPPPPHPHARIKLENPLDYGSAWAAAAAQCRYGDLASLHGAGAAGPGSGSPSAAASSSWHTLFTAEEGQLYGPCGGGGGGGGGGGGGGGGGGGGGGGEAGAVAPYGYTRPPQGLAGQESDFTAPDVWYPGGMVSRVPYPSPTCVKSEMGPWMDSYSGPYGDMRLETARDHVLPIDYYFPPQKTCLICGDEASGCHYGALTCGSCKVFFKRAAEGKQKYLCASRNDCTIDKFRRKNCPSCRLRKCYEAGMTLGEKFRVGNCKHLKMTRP
Nature of the data set: PSA-luc reporter assay in LNCaP cells transiently transfected with pIRES-AR-v7. The conditions noted are these: 24 h.

Data set [2] can be described thus: MTT assay (cytotoxicity), 22Rv1 cells. It is filed as cell-based. As to conditions: human, 22Rv1 cells. In short, it runs like this: as §2

SMILES strings stand for the structures. “Also recorded” adds a separate entry of the source.

Procedure for AR-v7 in LNCaP cells: NT, LNCaP cells were transiently transfected with pIRES vector, PSA-luc and pRL-TK. […] Cells were then transiently transfected with PSA-Luc and pRL-TK and exposed to DMSO or compounds for 24 h, in triplicate.

In the case of `N#Cc1ccc(NC(=O)Nc2cccc(C(F)(F)F)c2)cc1C(F)(F)F` [Compound 467], the “apoptosis in LNCaP cells” value with LNCaP cells is “induced apoptosis”. Besides, in data set [1] (24 h), the “inhibition of DHT-induced activation of endogenous AR in LNCaP cells (PSA-luc)” value (“inhibition” for short) is listed as “potently inhibit; also recorded: suppressed”. For the same molecule, 1.6 µM corresponded to half-maximal inhibition with DU145 cells (IC50).

In the data set with DU145 cells, `N#Cc1ccc(NC(=O)Nc2cccc(C(F)(F)F)c2)cc1Cl` [Compound 492] returned an IC50 of 5.1 µM.

Take `O=C(N/C=C/c1cccc(C(F)(F)F)c1)Nc1ccncn1` [Compound 562]: the “activity in LNCaP cells with forced expression of AR-v7 (PSA-luc)” value on AR-v7 in LNCaP cells is reported as “remain active”. Further, the “inhibition” value in data set [1] (24 h) is listed as “suppressed; also recorded: potently inhibited; also recorded: good activity”. This molecule also displayed a concentration for half-maximal inhibition (IC50) in data set [1] (FIG. 11) of approximately 1 µM.

In the case of `O=C(Nc1cccc(C(F)(F)F)c1)Nc1ccc([N+](=O)[O-])c(C(F)(F)F)c1` [Compound 442], the “apoptosis in LNCaP cells” value in the data set with LNCaP cells is listed as “induced apoptosis”. For the same molecule, the “inhibition” value in data set [1] (24 h) is listed as “potently inhibit; also recorded: suppressed”. Further, the “effect of increasing DHT from 1 nM to 10 nM on inhibitory activity in LNCaP cells” value in data set [1] (PSA-luc, 24 h) is “not competed out”. This molecule also showed a half-maximal inhibitory concentration (IC50) in the data set with DU145 cells of 1.5 µM.

For the molecule `O=C(Nc1ccc(Br)nc1)Nc1cc(C(F)(F)F)cc(C(F)(F)F)c1` [Compound 566], the midpoint of inhibition in data set [2] (72 h, Table 4.1), the IC50 at 72 h, lay at 1.1 µM.

Take `O=C(Nc1cccc(C(F)(F)F)c1)Nc1ccc(NC(=O)c2ccccc2F)c(C(F)(F)F)c1` [Compound 746]: the “activity in LNCaP cells with forced expression of AR-v7 (PSA-luc)” value at AR-v7 in LNCaP cells is “remain active”. Also, in data set [1] (24 h), the “inhibition” value is “suppressed; also recorded: potently inhibited; also recorded: good activity”. The “inhibitory activity compared with EPI at 25 μM (FIG. 11)” value in data set [1] (compound at 2.5 μM) is reported as “greater inhibitory activity than EPI at 25 μM”. This molecule had an IC50 at 72 h in data set [2] (72 h treatment, Table 6.1) of 2.2 µM.
